By EC50 is commonly meant the concentration that produces a half-maximal response. Usually half-life stands for the time needed for the level to fall by half in the phase considered. Read a low half-life as rapid decline. The Solubility is how much of the substance goes into solution per volume. Low values mean a poorly soluble substance, high ones a readily soluble substance. For orientation: AUC means concentration integrated over time. Read a high AUC as more exposure. Broadly, the Cmax is the highest concentration seen after dosing.

The text below walks through data of paper PMC3783656 (Bioorganic & medicinal chemistry letters, 2013).

In brackets after ≈: the same amount, converted by molar mass. Where two headings read alike, the source gives them in different places.

Series [1] deals with T1, CK1δ (Homo sapiens, UniProt P48730). The experiment in a line: CK1δ inhibition, Reaction Biology Corp. Type of series: biochemical. The conditions noted are these: for IC50: read-out: IC50 CK1δ.
T1 sequence (P48730 whole entry): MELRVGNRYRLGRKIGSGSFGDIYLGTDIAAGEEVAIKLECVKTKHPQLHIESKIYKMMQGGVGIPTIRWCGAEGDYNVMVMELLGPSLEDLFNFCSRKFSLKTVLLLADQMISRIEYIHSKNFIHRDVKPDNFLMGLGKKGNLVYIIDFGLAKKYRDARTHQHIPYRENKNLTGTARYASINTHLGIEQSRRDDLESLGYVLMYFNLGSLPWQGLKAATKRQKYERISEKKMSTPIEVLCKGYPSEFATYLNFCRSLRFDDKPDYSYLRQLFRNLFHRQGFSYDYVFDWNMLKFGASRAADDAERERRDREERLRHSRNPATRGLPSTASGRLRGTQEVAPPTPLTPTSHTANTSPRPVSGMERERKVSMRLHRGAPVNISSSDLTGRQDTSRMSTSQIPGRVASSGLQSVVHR
Series [2] concerns the target T1, CK1δ. Kind of series: CK1δ inhibition, in-house kinase inhibition assay. The series is classed as biochemical. The note with it: read-out: IC50 CK1δ.
Series [3] relates to human melanoma A375 cell line. Kind of series: MTT assay against A375 melanoma cells. Type of series: cell-based.
The target in a further series is CK1ε (Homo sapiens, UniProt P49674). The experiment in a line: CK1ε inhibition, Reaction Biology Corporation. Type of series: biochemical.
CK1ε, sequence (P49674 whole entry): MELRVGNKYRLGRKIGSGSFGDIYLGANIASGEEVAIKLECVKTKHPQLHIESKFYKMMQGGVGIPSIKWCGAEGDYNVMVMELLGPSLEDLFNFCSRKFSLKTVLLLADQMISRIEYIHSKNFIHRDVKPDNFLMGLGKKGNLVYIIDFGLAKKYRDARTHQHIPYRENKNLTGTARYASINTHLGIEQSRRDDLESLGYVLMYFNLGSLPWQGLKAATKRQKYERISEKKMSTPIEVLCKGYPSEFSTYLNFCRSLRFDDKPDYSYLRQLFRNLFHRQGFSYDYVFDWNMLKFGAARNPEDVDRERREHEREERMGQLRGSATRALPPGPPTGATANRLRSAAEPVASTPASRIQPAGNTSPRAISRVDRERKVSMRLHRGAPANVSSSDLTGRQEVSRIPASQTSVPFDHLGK
Series [4] can be described thus: Microsome stability, mouse liver microsomes.
A short description of series [5]: Microsome stability, rat liver microsomes. Background: Liver microsomes are vesicles of endoplasmic reticulum, rich in cytochrome P450 enzymes.
The nature of series [6]: Microsome stability, human liver microsomes.
The subject of series [7] is CK1. The note with it: cited from earlier work.
In another series the test system is 442 kinases. Kind of series: DiscoverRX KINOMEscan analysis of 442 kinases. Type of series: binding. The conditions noted are these: 10 μM, KINOMEscan of 442 kinases.
The nature of the next series: Solubility in PBS buffer. The series is classed as physicochemical.
The subject of series [8] is CK1. The note with it: cited from earlier work. This is another data set of the same source.
A short description of the next series: Mouse PK studies. The series is classed as in vivo. The note with it: IV dosing, 1 mg/kg, 10/10/80 DMSO/Tween/water.
In a further series the target is cytochrome P450 1A2 (Homo sapiens, UniProt P05177). Kind of series: Cyp assay, 1A2. Type of series: in vitro ADME. The conditions noted are these: at 10 μM.
cytochrome P450 1A2, sequence (P05177 whole entry, species assumed): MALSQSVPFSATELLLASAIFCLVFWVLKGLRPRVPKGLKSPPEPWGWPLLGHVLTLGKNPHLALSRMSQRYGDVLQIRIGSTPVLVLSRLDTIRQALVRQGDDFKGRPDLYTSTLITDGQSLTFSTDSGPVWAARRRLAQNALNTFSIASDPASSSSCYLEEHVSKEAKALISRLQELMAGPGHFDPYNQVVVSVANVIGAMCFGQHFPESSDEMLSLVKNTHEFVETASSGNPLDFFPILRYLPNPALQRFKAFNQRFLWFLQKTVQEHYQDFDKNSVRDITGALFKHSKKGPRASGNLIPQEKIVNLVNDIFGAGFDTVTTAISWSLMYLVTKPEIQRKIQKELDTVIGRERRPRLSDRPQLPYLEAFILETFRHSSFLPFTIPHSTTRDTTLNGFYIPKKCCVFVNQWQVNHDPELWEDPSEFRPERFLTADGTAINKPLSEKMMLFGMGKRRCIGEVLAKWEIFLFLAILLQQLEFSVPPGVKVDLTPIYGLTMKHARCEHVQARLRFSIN
Series [9] in a line: Solubility in DMEM/10% FBS. The series is classed as physicochemical.
[10] abbreviates: data obtained by Reaction Biology Corp.
[11] abbreviates: read-out: MTT assay A375 EC50, human A375 melanoma cell line.

On to `Fc1ccc2[nH]c(CNc3nc(N4CCOCC4)nc4c3ncn4-c3ccsc3)nc2c1` [SR-1275], for which the IC50 on CK1δ [1] (setting [10]) came out at 50 nM.

In the case of `CC1CN(c2nc(NCc3nc4ccccc4[nH]3)c3ncn(-c4ccsc4)c3n2)CCN1` (stereo not drawn) [SR-2915], at CK1δ [2], the IC50 was determined as 199 nM.

Consider `FC(F)(F)c1cccc2[nH]c(CNc3nc(N4CCOCC4)nc4c3ncn4-c3ccsc3)nc12` [SR-1272], for which the IC50 at CK1δ [1] (setting [10]) came out at 128 nM.

For the compound `O=[N+]([O-])c1cccc2[nH]c(CNc3nc(N4CCOCC4)nc4c3ncn4-c3ccoc3)nc12` [SR-2007], the IC50 on CK1δ [1] (setting [10]) amounted to 19 nM.

On to `FC(F)(F)c1ccc2[nH]c(CNc3nc(N4CCOCC4)nc4c3ncn4-c3ccsc3)nc2c1` [SR-1273], for which the IC50 at CK1δ [1] (setting [10]) came to 13 nM.

`O=[N+]([O-])c1cccc2[nH]c(CNc3nc(N4CCOCC4)nc4c3ncn4-c3ccc(F)cc3)nc12` [SR-2362]: on CK1δ [1] (setting [10]), the “IC50 CK1δ” value was “essentially inactive” and the IC50 is over 1000 nM.

As for `CC(C)(C)c1cc(NC(=O)Nc2ccc(-c3cn4c(n3)sc3cc(OCCN5CCOCC5)ccc34)cc2)no1` [AC220, reference compound], the “Activity against CK1δ” value at CK1δ [1] was “inactive”. In addition, in series [3] (Homo sapiens, A-375, read-out: MTT assay A375 EC50), the EC50 amounted to 1570 nM. The “Activity against CK1ε” value on CK1ε was “inactive”.

On to `CCN(CC)CCNC(=O)c1c(C)[nH]c(/C=C2\C(=O)Nc3ccc(F)cc32)c1C` [Sunitinib, sunitinib, reference compound], for which the half-life in series [4] (mouse, liver microsomes) is 21 min; in series [5] (rat, liver microsomes) it was 21 min; in series [6] (human, liver microsomes), 54 min.

Consider `CC[C@H](CO)Nc1nc(Nc2cccc(-c3ccccn3)c2)c2ncn(C(C)C)c2n1` [(R)-DRF053], for which the IC50 in the series on CK1 [7] (read-out: CK1 inhibition, dual CK1/CDK inhibitor) is 14 nM.

On to `O=C(Nc1nc2ccc(C(F)(F)F)cc2[nH]1)c1csc(NC(=O)c2ccccc2OC(F)(F)F)n1` [Bischof-5, reference compound], for which the EC50 in [3] (setting [11]) stood at 2300 nM.

For the compound `Nc1nccc(-c2c(-c3ccc(F)cc3)ncn2C2CCCCC2)n1` [PF-670462, reference compound], the “Number of kinases inhibited ≥90%” value in the series with 442 kinases is listed as 44. Moreover, the EC50 in [3] (setting [11]) was over 10000 nM.

As to `O=[N+]([O-])c1cccc2[nH]c(CNc3nc(N4CCOCC4)nc4c3ncn4-c3cc(F)cc(F)c3)nc12` [SR-2368], the IC50 on CK1δ [2] worked out at 75 nM.

`Clc1ccc2[nH]c(CNc3nc(N4CCNCC4)nc4c3ncn4-c3ccsc3)nc2c1` [SR-2876]: the Solubility in “Solubility in PBS buffer” came to 54 µM (≈ 25.2 µg/mL). The IC50 at CK1δ [2] is 51 nM.

On to `CS(=O)(=O)c1cccc2[nH]c(CNc3nc(N4CCOCC4)nc4c3ncn4-c3ccsc3)nc12` [SR-2805], for which the IC50 on CK1δ [1] (setting [10]) worked out at 16 nM.

As to `CS(=O)(=O)c1ccc2[nH]c(CNc3nc(N4CCOCC4)nc4c3ncn4-c3ccsc3)nc2c1` [SR-2797], at CK1δ [1] (setting [10]), the IC50 was found to be 10 nM.

In the case of `NCCNS(=O)(=O)c1ccc(Cl)c2ccncc12` [CKI-7], in the series on CK1 [7] (read-out: CK1 inhibition), the IC50 was 6000 nM.

In the case of `COc1cc(OC)c(C=C2C(O)=Nc3ccccc32)c(OC)c1` [IC261], the IC50 with CK1 [7] (read-out: IC50 for CK1 inhibition in vitro, in vitro) was 1000 nM; in the series on CK1 [8] (read-out: IC50 for CK1 inhibition in cells, in cells), 25000 nM.

As to `Clc1ccc2[nH]c(CNc3nc(N4CCOCC4)nc4c3ncn4-c3ccoc3)nc2c1` [SR-2850], the IC50 on CK1δ [1] (setting [10]) was 23 nM.

For `COc1ccc2[nH]c(CNc3nc(N4CCOCC4)nc4c3ncn4-c3ccsc3)nc2c1` [SR-1279], at CK1δ [1] (setting [10]), the IC50 is 17 nM.

On to `c1ccc2[nH]c(CNc3nc(N4CCOCC4)nc4c3ncn4C3CCCC3)nc2c1` [SR-2149], for which the IC50 on CK1δ [1] (setting [10]) amounted to 57 nM.

For `CN1CCN(c2nc(NCc3nc4ccccc4[nH]3)c3ncn(-c4ccsc4)c3n2)CC1` [SR-1294], on CK1δ [1] (setting [10]), the IC50 is 11 nM.

Turning to `O=[N+]([O-])c1ccc2[nH]c(CNc3nc(N4CCOCC4)nc4c3ncn4-c3ccsc3)nc2c1` [SR-1278], the IC50 at CK1δ [1] (setting [10]) turned out to be 21 nM.

With `N#Cc1ccc2[nH]c(CNc3nc(N4CCOCC4)nc4c3ncn4-c3ccsc3)nc2c1` [SR-1276], on CK1δ [1] (setting [10]), the IC50 came out at 11 nM.

For `NC1CCN(c2nc(NCc3nc4cc(Cl)ccc4[nH]3)c3ncn(-c4ccsc4)c3n2)CC1` [SR-2875], the IC50 on CK1δ [2] is 119 nM.

In the case of `O=[N+]([O-])c1cccc2[nH]c(CNc3nc(N4CCOCC4)nc4c3ncn4-c3cccc(F)c3)nc12` [SR-2364], the IC50 at CK1δ [2] was found to be 57 nM.

Turning to `NC(=O)c1ccc(-c2nc(-c3ccc4c(c3)OCCO4)c(-c3ccccn3)[nH]2)cc1` [Compound D4476], in the series with CK1 [7] (read-out: CK1 inhibition in vitro, in vitro), the IC50 was […]. In addition, the EC50 in series [3] (setting [11]) is 10000 nM. Further, the “Activity in cell-based assays” value in the series on CK1 [8] (cell-based assays) was 20 to 50 µM.

With `Clc1ccc2[nH]c(CNc3nc(N4CCOCC4)nc4c3ncn4-c3ccsc3)nc2c1` [SR-1274], at CK1δ [1] (setting [10]), the IC50 was found to be 105 nM.

Take `c1ccc2[nH]c(CNc3nc(N4CCOCC4)nc4c3ncn4-c3ccsc3)nc2c1` [SR-653234]: the “Microsome stability T1/2 (mouse)” value in series [4] (mouse liver microsomes, third value of h/r/m) came out at 1 min. In the series “Mouse PK studies”, this compound showed an AUC of 1.75 µM·h, a Cl of 2.2 mL/min/kg, a Cmax of 3.2 µM and a T1/2 of 43.8 min. Besides, on cytochrome P450 1A2, the “Inhibition of 1A2” value is “e 86% Inhibition of 1A2 at 10 μM”. Also, in series [5] (rat liver microsomes, second value of h/r/m), the “Microsome stability T1/2 (rat)” value is given as 6 min. The same compound showed a Solubility in series [9] of 28 µM (≈ 12.1 µg/mL). For the same compound, at CK1δ [1] (setting [10]), the IC50 is 160 nM. Also, the EC50 in series [3] (setting [11]) is 111 nM. For the same compound, in series [6] (human liver microsomes, first value of h/r/m), the “Microsome stability T1/2 (human)” value came out at 11 min. Also, the IC50 at CK1ε (read-out: CK1ε Inh IC50, data obtained by Reaction Biology Corporation) came to 540 nM.

As to `c1ccc2[nH]c(CNc3nc(N4CCNCC4)nc4c3ncn4-c3ccsc3)nc2c1` [SR-1292], on CK1δ [1] (setting [10]), the IC50 stood at 3 nM. In “Solubility in PBS buffer”, this compound displayed a Solubility of 75 µM (≈ 32.4 µg/mL).
